Data as given in patent US20080280860A1, “Use of Vitamin D Compounds to Treat Endometriosis” (BioXell S.p.A., priority 2005, published 2008).

What was measured:
[1] = tested on: stromal cells; test: Real Time PCR for gene expression quantification in cultured cells; assay type: cell-based; conditions: 1 uM and 0.1 uM versus untreated
Description: (§1) Tissue was gently minced into small pieces (1 to 2 mm^3) and incubated at 37° C. for 1 h with 0.1% type A collagenase. At the end of the incubation, single stromal cells were separated from large clumps of epithelium by a 10 min. period of differential sedimentation at unity gravity. The top 8 ml of medium, containing predominantly stromal cells, were then slowly removed and the cells were collected by centrifugation. The stromal-enriched fraction was washed twice in culture medium and allowed to adhere selectively to tissue culture dishes for 15 min.
(§2) Thereafter, nonattached epithelial cells still present were removed and a purified stromal preparation was obtained on the surface of the culture dishes.
Cells were incubated at 37° C. in 3% FBS DMEM (without Compound A, with Compound A at 1 uM concentration or with Compound A at 0.1 uM concentration) or 10% FBS DMEM (without Compound A, with Compound A at 1 uM concentration or with Compound A at 0.1 uM concentration). After 4 or 8 hours of incubation cells were trypsinized and collected as a cell pellet.
For total RNA extraction it was used the RNeasy Mini Kit QIAGEN (cat. no. 74106) briefly described below.
Cells were distrupted by addition of Buffer RLT and the lysate was loaded onto a QlAshredder spin column (QIAGEN cat. no. 79656) placed in a 2 ml collection tube and centrifuged for 2 min at maximum speed. A volume of 70% ethanol was added to the homogenized lysate. The sample was loaded on an RNeasy mini column placed in a 2 ml collection tube and centrifuged for 15 sec at >10000 rpm. The RNA bound to the column was digested with a DNase treatment. The column was washed with Buffer RW1 and centrifuged for 15 sec at >10000 rpm. The sample was incubated with DNase I mix (RNase-Free Dnase Set QIAGEN cat. no. 79254) at room temperature for 15 min. […] RNA concentration was evaluated by NanoDrop Spectrophotometer […]
Real Time PCR was performed by using ABI PRISM 7000 Sequence Detection System (Applied Biosystems). […] The genes analysed included Vitamin D Receptor (VDR), Cytochrome P450 (CYP24), Vascular Endothelial Growth Factor (VEGF), Estrogen Receptor alpha (ERα), Estrogen Receptor beta (ERβ), Progesterone Receptor (PR), Aromatase (CYP19), Cyclooxygenase type 2 (COX-2), Interleukin-8 (IL-8), Tumor Necrosis Factor alpha (TNF α), Caspase-3 (CASP3), Caspase-6 (CASP6), Ki-67 Nuclear Antigen (Ki-67).
Samples were incubated 2 min at 50° C., 10 min at 95° C. and amplified for 40 cycles at 95° C. for 15 sec (denaturation) and at 60° C. for 1 min (annealing/extension). The amount of gene expression was normalized to rRNA 18S gene expression and the comparative CT methods (User Bulletin #2 ABI PRISM 7000 Sequence Detection System) was used for relative quantitation.

[2] = tested on: Ectopic endometrium stromal cells; test: Proliferation of endometrial stromal cells in vitro (CyQuant), ectopic; assay type: cell-based; conditions: 1 uM-0.1 nM, 48-96 hours; FIG. 2B; may be dose dependent
Description: as §1, §2
(§3) The cells were maintained in DMEM supplemented with 10% Fetal Bovine Serum (SIGMA) and 100 U/ml penicillin, 100 ug/ml streptomycin (GIBCO cat. no. 15140-122).
(§4) When the stromal cells were grown to confluence, were washed in PBS and then trypsinized using 1× trypsin/EDTA solution (PromoCell cat. no. C-41002). […] The proliferation was determined with CyQuant Cell Proliferation Assay (Molecular Probe cat. no. C7026). […]
(§5) The fluorescence was determined using a fluorescence microplate reader with filters appropriate for ˜480 nm excitation and ˜520 nm emission.

[3] = tested on: Eutopic endometrium stromal cells; test: Proliferation of endometrial stromal cells in vitro (CyQuant), eutopic; assay type: cell-based; conditions: 1 uM-0.1 nM, 48-96 hours; FIG. 2A
Description: as §1, §2, §3, §4, §5

[4] = tested on: peritoneal macrophages; test: ELISA quantification of cytokine produced by peritoneal macrophages; assay type: in vivo, mice
Description: Peritoneal cells were recovered two weeks after unterus transfer in cold PBS, 2 mM EDTA, by peritoneal lavage of treated (Compound A at 100 ug/kg) and untreated (vehicle only) animals prepared according to the procedure described previously in Examples 1 to 3 (pool of 5 mice per group). Peritoneal macrophages were counted directly after collection using Turk reagent, washed, and placed into culture with RPMI/glutamax 5% FC I, pen/strep, Na pyruvate. After 2 hr at 37° C. the non adherent cells were removed and the macrophages were cultured for a further 48 hr. The supernatant was harvested and cytokines (TNF-alpha, IL1-alpha, IL1-beta, IL6, MIP-2 and VEGF) were quantified using a specific ELISA (R&D System DuoSet). All ELISA determinations were performed in duplicate on the undiluted sample. The total cells number plated was assessed by CyQuant test and values of protein production were normalized to cell number.

C=C1/C(=C\C=C2/CCC[C@]3(C)C([C@@H](C)C/C=C/C(O)(CC)CC)=CC[C@@H]23)C[C@@H](O)C[C@@H]1F [Compound A, 1-alpha-fluoro-25-hydroxy-16,23E-diene-26,27-bishomo-20-epi-cholecalciferol]
VDR expression ([1]; FIG. 3A): Little or no change
VEGF expression ([1]; FIG. 3B): Little or no change
Cyp24 expression ([1]; FIG. 3C): marked upregulation
Cyp19 expression ([1]; FIG. 3D): Little or no change
cell proliferation, Ectopic endometrium [2]: reduction in cell proliferation
cell proliferation, Eutopic endometrium [3]: reduction in cell proliferation
inflammatory cytokine and VEGF production (TNF-alpha, IL1-alpha, IL1-beta, IL6, MIP-2, VEGF) ([4]; 100 ug/kg versus vehicle, macrophages recovered two weeks after uterus transfer, cultured 48 hr, FIG. 11): dramatically reduced
cytokine production after re-activation in vitro with LPS ([4]; macrophages of treated animals, data not shown): still capable of producing the same cytokines
